# According to ChEMBL document CHEMBL1157539, “Thousands of chemical starting points for antimalarial lead identification” (Nature, 2010):
# Tested on: Plasmodium falciparum
# Experiment: GSK_TCMDC: Inhibition of Plasmodium falciparum 3D7 in whole erythrocytes, using parasite LDH activity as an index of growth.
# Assay type: functional, organism-based
# Conditions: Plasmodium falciparum, 3D7
row,Structure (SMILES),XC50 [nM]
1,NC(=O)c1cccc(C(=O)Nc2cccc(-c3csc(-c4nc5ccccc5[nH]4)c3)c2)c1,133
2,Cc1ccc(F)cc1S(=O)(=O)Nc1cccc(CCN2CCC(N3CCCCC3)CC2)c1,1120
3,CC(C)(C)c1cc(Cn2ccnc2)cc(C(C)(C)C)c1O,1040
4,CC(C)C(=O)ONC1=NC(C)(C)N(OCCCOc2cc(Cl)c(Cl)cc2Cl)C(NOC(=O)C(C)C)=N1,26.6
5,O=C(NCc1cccc(F)c1)c1ccc(O)c(-c2cc(Cl)cc(Cl)c2)c1,559
6,CO/C(=C\C=C/c1cc2cc(Cl)c(Cl)cc2[nH]1)C(=O)NC1CC(C)(C)N(C)C(C)(C)C1,833
7,CCOC(=O)c1nc(-c2ccccc2)[nH]c1NC(=S)NC1CCCCC1,836
8,N=C(N)NN=CC(=O)Nc1ccc(Cl)c(C(F)(F)F)c1,892
9,Cc1cccc2nc(-c3ccc(-c4ccc(NC(=O)Nc5ccsc5)cc4)s3)[nH]c12,113
10,O=C(NCCN1CCCC1)c1ccc(-c2ccc(-c3nc4ccccc4[nH]3)s2)cc1,938
11,CCN(CC)CCN(Cc1ccc(-c2ccc(C(F)(F)F)cc2)cc1)C(=O)Cn1c(CCc2cc(F)c(F)c(F)c2)nc(=O)c2ccccc21,827
12,CC(=O)Nc1ccc(C(=O)Nc2cccc(-c3cccc(-c4nc5cc(C(F)(F)F)ccc5[nH]4)c3)c2)cn1,73.7
13,CC(C)Cc1csc(NC(=O)C=Cc2ccco2)c1C(=O)O,305
14,CC1CN(c2cnn(Cc3ccc(NC(=O)Nc4ccc(F)cc4[N+](=O)[O-])cc3)c(=O)c2Cl)CC(C)N1 (stereo unspecified),808
15,COc1cccc(C(=O)C2CC2CN2CC=C(c3c[nH]c4cccc(Br)c34)CC2)c1 (stereo unspecified),752
16,CC(C)COc1ccc(Cl)cc1Cc1ccc(-c2nc3cc(F)c(F)cc3[nH]2)o1,894
17,CCNS(=O)(=O)c1ccc(Oc2ccc([N+](=O)[O-])cc2)cc1,169
18,Nc1nc(-c2ccc3c(Nc4ccc(F)c(Cl)c4)ccnc3c2)cs1,868
19,CN(C)CCC1CCN(CCS(=O)(=O)c2cccc(Nc3ccc(-c4ccsc4)cn3)c2)CC1,938
20,COc1ccc(C2CC(=O)C3=C(C2)NC(C)=C(C(=O)OC2CCCC2)C3c2ccc(O)cc2)cc1OC (stereo unspecified),565
21,Cc1ccc2c(OCCN3CCC(Cc4cc5c(cc4F)OCC(=O)N5)CC3)cc(F)cc2n1,631
22,Nc1nc(N)c2cc(Sc3ccc4ccccc4c3)ccc2n1,17.1
23,CN1CCN(Cc2cccc(-c3ccc4c(Nc5ccc(Oc6cccnc6)cc5)ccnc4c3)c2)CC1,192
24,CN(C)C(=O)CCCn1c(CNCCCNc2cc(=O)c3ccccc3[nH]2)cc2c(Cl)cc(Cl)cc21,1190

row,Structure (SMILES),XC50 [nM]
1,CCN(CCCN1CCCCC1)c1cc(C)nc(Nc2ccc(C)cc2Br)n1,172
2,Cc1cc(NC(=O)NCCN2CCC(NS(=O)(=O)c3ccccc3F)CC2)c2ccccc2n1,949
3,CCCCC1(NC(=O)[C@@H](Nc2ccc(C#N)c3ccccc23)C2CCCCC2)CCCCC1,1120
4,CN(C(=O)c1nn(-c2ccccn2)c2nccc(-c3cccs3)c12)C1CCCCC1,1240
5,CCOc1cc(OCC)c2ccccc2c1CNCCCCCCNCc1c(OCC)cc(OCC)c2ccccc12,305
6,CN(CCC1CCN(C(=O)/C=C/c2ccc(Cl)c(Cl)c2)CC1)C1CCC(c2c[nH]c3ccccc23)CC1 (stereo unspecified),774
7,O=c1c(NCCCN(Cc2ccc(F)cc2)c2ccccn2)c(NCc2cccnc2)c1=O,61.7
8,c1ccc(-c2cc(NCCCn3ccnc3)nc(-c3cccnc3)n2)cc1,977
9,CCCN(CCC)CCCN(CCCN(CCC)CCC)c1cc(C)nc(Nc2ccc3cc(Br)ccc3c2)n1,210
10,Cc1ccccc1Oc1nc2ccccc2nc1SCC(=O)NC(C)C,197
11,COc1ccc(C2(CNCC(O)c3cccc([N+](=O)[O-])c3)CCCCC2)cc1OC (stereo unspecified),957
12,CNC(=O)c1cnc(Nc2ccc(N3CCOCC3)cc2)nc1Nc1cccc(OC)c1,759
13,Cc1nc(-c2ccc(-c3ccc(NC(=O)c4coc5ccc(N6CC(C)NC(C)C6)cc45)cc3)c(C)c2)no1 (stereo unspecified),925
14,Cc1ccc(O)cc1Nc1ccnc2cc(-c3csc(CN(C)CCN(C)C)n3)ccc12,789
15,CC1CN(c2ccc(NC(=O)c3cccs3)cc2)CCN1Cc1cccc(F)c1 (stereo unspecified),492
16,O=C(NC1CCN(Cc2ccccc2O)C1)c1cccc(C(F)(F)F)c1 (stereo unspecified),730
17,Fc1cccc(C=NN=c2cc[nH]c3ccc(C(F)(F)F)cc23)c1,733
18,Cc1cc(Cl)ccc1NC(=O)NCCCCCN1CCC(c2c[nH]c3ccccc23)CC1,1010
19,CC(C)CNC(=S)N1CCCN(c2nc3ccc(Cl)cc3s2)CC1,960
20,CC(C)CCN1CCC(Oc2ccc(NC(=O)c3ccsc3)cc2Cl)CC1,1040
21,O=C(Nc1cccc(-c2cccc(-c3nc4ccccc4[nH]3)c2)c1)c1csnn1,921
22,CC(C)CNCc1ccc(-c2ccc(CN(CCCN3CCN(C)CC3)C(=O)/C=C/c3ccccc3)cc2)cc1,917
23,Clc1ccc2c(N3CCCNCC3)ccnc2c1,482
24,c1ccc(Oc2ccc(Nc3ccnc4ccc(-c5ccccn5)cc34)cc2)cc1,1100

row,Structure (SMILES),XC50 [nM]
1,CC1(CCCCN2CCC(Oc3ccc(F)cc3F)CC2)C(=O)Nc2ccccc21 (stereo unspecified),761
2,C=CCOc1ccc2ccccc2c1CNCCCCCCNCc1c(OCC=C)ccc2ccccc12,859
3,NC(=O)CN1CC=C(c2c[nH]c3ccc(Br)cc23)CC1,1100
4,O=C(/C=C/c1ccc(Cl)c(Cl)c1)N1CCC(CCN2CCC(c3c[nH]c4ccncc34)CC2)CC1,1140
5,Cc1c(C(=O)Nc2cc(Sc3ccc(F)cc3)cc([N+](=O)[O-])c2)sc2ncn(Cc3cccc(F)c3)c(=O)c12,720
6,Cc1cc(Nc2ccc(OCc3ccccc3Cl)cc2)c2cc(Cl)ccc2n1,433
7,CC(c1cccc(S(=O)(=O)NCc2cccc(C(F)(F)F)c2)c1)N1CCC(N2CCCCC2)CC1 (stereo unspecified),695
8,CS(=O)(=O)Nc1cccc(-c2cnc3[nH]cc(-c4ccc(C(=O)O)c(F)c4)c3c2)c1,834
9,O=C(Nc1ccc2c(c1)CCC2)N[C@H]1CCN(CCCCCNC(=O)C2CC2c2ccc(Cl)c(Cl)c2)C1 (stereo partly specified),1080
10,CN(C)CCCOc1ccc(CN2CC[C@H](NC(=O)c3ccc(Cl)c(Cl)c3)C2)cc1Cl,957
11,Cc1ccccc1CN1CCCN(Cc2ccc(C(=O)Nc3ccc(Cl)cc3)cc2)CC1,944
12,O=C(CCc1ccccc1)N[C@H](Cc1c[nH]c2ccccc12)C(=O)N1CCC(NCc2ccc3c(c2)Cc2ccccc2-3)CC1,910
13,Cc1ccc2c(OCCN3CCC(Cc4ccc5c(c4)NC(=O)CO5)CC3)cc(F)cc2n1,755
14,COc1ccc(OC)c(C=NNc2nc3ccccc3[nH]2)c1,729
15,CC(CCc1ccccc1)NCC(O)c1ccc2c(c1)S(=O)(=O)c1ccccc1N2 (stereo unspecified),1220
16,O=C(Nc1ccccc1)Nc1cccc(-c2cc(CNCCc3ccccc3)sc2-c2ccncc2)c1,598
17,Cc1[nH]c(C)c(-c2ccc(CCc3ccc(F)cc3F)cc2)c(=O)c1Cl,15.9
18,O=C(CN1CCN(S(=O)(=O)C=Cc2ccccc2)CC1)Nc1cc(C(F)(F)F)ccc1Cl,776
19,Cc1cccc(C)c1C1CCN(CCCCNC(=O)c2cc3ccccc3[nH]2)CC1,892
20,CC(=O)N(C)c1ccc(C(=O)Nc2cccc(-c3cccc(-c4nc5cc(C(F)(F)F)ccc5[nH]4)c3)c2)cc1,314
21,COc1cc(OC)nc(-c2cccc(NC(=O)c3ccc4c(=O)n(CCN5CCCCC5)cnc4c3)c2)n1,744
22,OC(CNCc1ccccc1)c1cc(OCc2ccccc2)cc(OCc2ccccc2)c1 (stereo unspecified),1000
23,c1ccc(Oc2ccc(Nc3ccnc4cc(-c5cccc(CNCCN6CCOCC6)c5)ccc34)cc2)cc1,391
24,COc1ccc(-c2ccc(NC(=O)c3cccc(F)c3)cc2)cc1CN1CCCN(C)CC1,672

row,Structure (SMILES),XC50 [nM]
1,O=C(NCCNc1noc(-c2sccc2Br)n1)c1ccc(Cl)cc1,1170
2,COc1ccc(CCNC(=O)c2cc(C)ccc2O)cc1-c1ccc(C(C)(C)C)cc1,482
3,Nc1ncc(Cc2cc(Cl)c(N)c3ncccc23)c(N)n1,1120
4,COc1cccc(Nc2nc(C)cc(NCc3ccc(-c4c(C)noc4C)cc3)n2)c1,880
5,O=C(Cn1c(CCc2cccc(F)c2F)nc(=O)c2ccccc21)N(Cc1ccc(-c2ccc(C(F)(F)F)cc2)cc1)C1CCN(C2CCSCC2)CC1,856
6,CN1CCN(CC(=O)Nc2ccc(-c3ccc(-c4nc5ccccc5[nH]4)s3)cc2)CC1,299
7,C[C@H](Cc1ccc(CCc2ccc(C[C@@H](C)NC[C@H](O)c3cccc(Cl)c3)cc2)cc1)NC[C@H](O)c1cccc(Cl)c1,935
8,CO/C(=C\C=C\c1cc2cc(Cl)c(Cl)cc2[nH]1)C(=O)NCCCN1CCN(c2cccc(OCC(=O)Nc3ccccc3)c2)CC1,504
9,COc1ccc(-c2cccc(NC(=O)c3ccc(Cl)cc3)c2)cc1CN1CCCC1,778
10,O=C(Cc1cccc2ccccc12)NC1CCN(c2ccnc3cc(Cl)ccc23)C1 (stereo unspecified),248
11,CC(=O)Nc1ccc(C(=O)NC2CCN(c3ccnc4cc(Cl)ccc34)C2)cc1 (stereo unspecified),806
12,CCCCN1C(=N)NC(c2ccccc2)(c2ccccc2)C1=O,1030
13,CCOC(=O)N(C)/N=C/[C@H](CCc1ccccc1)NC(=O)[C@H](CC(C)C)NC(=O)c1cc2cccc(OC)c2o1,556
14,Cc1cc(=O)c(-c2ccc(OCCSc3ccc(C(F)(F)F)cn3)cc2)c(C)[nH]1,527
15,CNC(=O)NC1CCN(Cc2c(-c3cccs3)nc3ccccc3c2C(=O)N[C@@H](C)C2CCCCC2)CC1,219
16,Cc1ccc(CNC(=O)[C@H](CC(C)C)Nc2cc(C)nc(Nc3ccccc3)n2)cc1,1770
17,COc1ccc2nc(-c3ccc(F)cc3)cc([C@@H](O)[C@@H]3C[C@@H]4CCN3CC4C=NO)c2c1 (stereo partly specified),248
18,NC(=O)c1cc2nc(NC3CCC3)nc(Nc3cccc4[nH]ncc34)c2[nH]1,732
19,Cc1cnc(C(=O)Nc2cccc(-c3cccc(-c4nc5cccc(C)c5[nH]4)c3)c2)cn1,579
20,CN(C)C(C)(C)CN(Cc1ccc(-c2ccc(C(F)(F)F)cc2)cc1)C(=O)Cn1c(CCc2cccc(F)c2F)nc(=O)c2ccccc21,827
21,O=C(N[C@H]1CCN(Cc2ccc(OCCN3CCNCC3)c(Cl)c2)C1)c1ccc(Cl)c(Cl)c1,1060
22,Cc1cccnc1Nc1nc(-c2ccccn2)cs1,687
23,O=C(C=Cc1ccc(Cl)c(Cl)c1)NCCCCCN1CCCC(CCCNC(=O)C2CC2c2ccccc2)C1 (stereo unspecified),1130
24,O=S(=O)(Nc1ccc2nccc(N3CCNCC3)c2c1)c1ccc2oc3ccccc3c2c1,695
